From patent US11932600B2, “Biaryl derivative” (DAIICHI SANKYO COMPANY, LIMITED, priority 2018, dated 2024)

Tests used:
human TNAP = biological target: T1, human TNAP (Homo sapiens, UniProt P05186); assay: Inhibitory test of TNAP activity (pNPP substrate, p-nitrophenol production); format: biochemical; settings: human TNAP from culture supernatant of transfected COS1 cells, 60 minutes at room temperature, ABS 405 nm
T1 construct: host or cells: COS1 cells, concentrated and dialyzed culture supernatant
T1 sequence (P05186 18-502 limits assumed): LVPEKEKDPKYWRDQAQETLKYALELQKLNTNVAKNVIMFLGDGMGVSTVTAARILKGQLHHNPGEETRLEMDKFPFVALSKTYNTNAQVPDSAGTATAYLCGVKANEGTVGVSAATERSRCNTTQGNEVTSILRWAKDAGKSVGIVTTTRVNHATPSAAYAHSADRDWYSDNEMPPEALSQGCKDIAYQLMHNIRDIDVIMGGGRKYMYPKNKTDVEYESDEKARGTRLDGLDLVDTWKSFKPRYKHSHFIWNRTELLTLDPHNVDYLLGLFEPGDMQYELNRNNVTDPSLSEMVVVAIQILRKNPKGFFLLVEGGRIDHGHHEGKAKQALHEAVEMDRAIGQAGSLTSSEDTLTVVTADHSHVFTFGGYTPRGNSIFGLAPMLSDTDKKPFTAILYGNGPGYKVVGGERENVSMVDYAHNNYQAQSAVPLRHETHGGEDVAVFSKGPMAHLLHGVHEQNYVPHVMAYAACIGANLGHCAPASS
Description: <Test Examples> (Test Example 1) Inhibitory Test of TNAP Activity
COS1 cells (DS Pharma Biomedical Co., Ltd.) were transfected with human TNAP (OriGene Technologies, Inc.) using Lipofectamine LTX & Plus reagent (Invitrogen Corp.). On the next day, the medium was replaced with a fresh medium, and the cells were cultured in an incubator for 3 days. After 3 days, the culture supernatant was collected and concentrated by centrifugation at 5000 G for 30 minutes using Amicon 14, 10^4 cut (Merck Millipore). The concentrated culture supernatant was dialyzed against 5 L of 50 mM Tris/200 mM NaCl/1 mM MgCl2/20 μM ZnCl2 twice and used as an enzyme source (enzyme solution). The substrate pNPP (ProteoChem Inc.) was adjusted to 3.1 mM with Milli-Q water, and a solution of each test compound dissolved in dimethyl sulfoxide (DMSO; Wako Pure Chemical Industries, Ltd.) by 6 serial dilutions at a 5-fold common ratio from 100 μM or DMSO was added thereto at a final concentration of 1% by volume. The enzyme solution adjusted to 2 μg/mL with an assay buffer (200 mM Tris/2 mM MgCl2/0.04 mM ZnCl2/0.01% Tween 20) was added in the same amount of the substrate solution and incubated at room temperature for 60 minutes. Then, the absorbance (ABS: 405 nm) was measured using a microplate reader (model plus 384, Molecular Devices, LLC), and the concentration of produced p-nitrophenol was calculated.

[1] = tested on: plasma ALP (80-90% containing TNAP); assay: Inhibitory test of plasma TNAP activity in B6 mouse; format: in vivo; settings: 0.3 mg/kg orally in 0.5% methylcellulose, average inhibition from 0 hour to 6 hours after administration, activity before administration = 100%
Description: (Test Example 3) Inhibitory Test of Plasma TNAP Activity in B6 Mouse (Charles River Laboratories Japan, Inc.)
After blood sampling from the tail vein using a heparin-treated hematocrit capillary tube (EM Meister Hematocrit Capillary Tube, AS ONE Corp.) (as the sample before compound administration), each test compound suspended in a 0.5% methylcellulose solution (powder purchased from Wako Pure Chemical Industries, Ltd. was adjusted to 0.5% with Otsuka distilled water) was administered orally to the mouse (0.3 mg/kg). 1, 2, 4, 6, and 24 hours after the administration, blood was collected from the tail vein using a heparin-treated hematocrit capillary tube to obtain a plasma sample. The plasma sample was added to an assay buffer (1 M Tris, 1 M MgCl2, 20 mM ZnCl2, and water, pH 7.5), and the mixture was left standing for 5 minutes. Then, the absorbance at 405 nm was measured and used as a blank. The substrate pNPP was added to the plasma sample and incubated at room temperature for 180 minutes. Then, the absorbance (ABS: 405 nm) was measured using a microplate reader (model plus 384, Molecular Devices, LLC), and the concentration of produced p-nitrophenol was calculated. The blank was subtracted from all measurement values to calculate TNAP activity at each time point with the TNAP activity of the sample before compound administration defined as 100%.
It was calculated according to the following expression: 100−((plasma ALP activity at 0 hr+plasma ALP activity at 1 hr)*1/2+(plasma ALP activity at 1 hr+plasma ALP activity at 2 hr)*1/2+(plasma ALP activity at 2 hr+plasma ALP activity at 4 hr)*2/2+(plasma ALP activity at 4 hr+plasma ALP activity at 6 hr)*2/2)/6.

SMILES | IC50 (human TNAP) | Plasma ALP Inhibition (6 h ave. inhibition %) [1]
CCc1cncc(S(=O)(=O)Nc2c(F)cc(Cl)cc2-c2ccc(CCC(=O)O)cc2)c1 [Example 29, 3-{5′-Chloro-2′-[(5-ethylpyridine-3-sulfonyl)amino]-3′-fluoro[1,1′-biphenyl]-4-yl}propanoic acid] | 0.18 nM | 70.9%
Cc1cncc(S(=O)(=O)Nc2c(F)cc(Cl)cc2-c2ccc(CCC(=O)O)cc2)c1C [Example 31, 3-{5′-Chloro-2′-[(4,5-dimethylpyridine-3-sulfonyl)amino]-3′-fluoro[1,1′-biphenyl]-4-yl}propanoic acid] | 0.18 nM | 82.2%
Cc1cncc(S(=O)(=O)Nc2c(F)cc(Cl)cc2-c2ccc(OC(C)(C)C(=O)O)cc2)c1 [Example 3, 2-({5′-Chloro-3′-fluoro-2′-[(5-methylpyridine-3-sulfonyl)amino][1,1′-biphenyl]-4-yl}oxy)-2-methylpropanoic acid] | 0.24 nM | 70.5%

Compounds with a lower IC50 (human TNAP), results first:

IC50 (human TNAP) | SMILES | Plasma ALP Inhibition (6 h ave. inhibition %) [1]
0.14 nM | Cc1cncc(S(=O)(=O)Nc2c(F)cc(Cl)cc2-c2ccc(CC(=O)O)cc2)c1 [Example 11, {5′-Chloro-3′-fluoro-2′-[(5-methylpyridine-3-sulfonyl)amino][1,1′-biphenyl]-4-yl}acetic acid] | 79.0%
0.1 nM | Cc1cncc(S(=O)(=O)Nc2c(F)cc(Cl)cc2-c2ccc(CC(=O)O)cc2)c1C [Example 12, {5′-Chloro-2′-[(4,5-dimethylpyridine-3-sulfonyl)amino]-3′-fluoro[1,1′-biphenyl]-4-yl}acetic acid] | 82.2%
